According to the NIST ThermoML archive (doi:10.1021/je800110r):

Conditions: 293.15 K, Liquid, Vibrating tube method

CCCCCCCCCC [decane]
Conditions | mass density [kg/m3]
19602 kPa | 743.9
19616 kPa | 743.9
19630 kPa | 743.8
19643 kPa | 744
19662 kPa | 744
19678 kPa | 743.9
19692 kPa | 744
19712 kPa | 744
19726 kPa | 744
19742 kPa | 744
19763 kPa | 744
19775 kPa | 744
19793 kPa | 744.1
19810 kPa | 744.1
19824 kPa | 744.2
19838 kPa | 744.1
19852 kPa | 744.1
19866 kPa | 744.1
19883 kPa | 744.1
19897 kPa | 744.1
19914 kPa | 744.2
19935 kPa | 744.2
19950 kPa | 744.2
19969 kPa | 744.4
19983 kPa | 744.2
19999 kPa | 744.2
20016 kPa | 744.2
20035 kPa | 744.3
20055 kPa | 744.2
20072 kPa | 744.3
20084 kPa | 744.3
20103 kPa | 744.2
20120 kPa | 744.2
20137 kPa | 744.3
20152 kPa | 744.2
20165 kPa | 744.3
20181 kPa | 744.2
20196 kPa | 744.4
20218 kPa | 744.4
20233 kPa | 744.4
20251 kPa | 744.3
20263 kPa | 744.5
20288 kPa | 744.3
20306 kPa | 744.4
20326 kPa | 744.3
20343 kPa | 744.4
20365 kPa | 744.5
20383 kPa | 744.5
20398 kPa | 744.5
20413 kPa | 744.5
20428 kPa | 744.5
20450 kPa | 744.6
20470 kPa | 744.5
20485 kPa | 744.5
20503 kPa | 744.6
20519 kPa | 744.5
20535 kPa | 744.6
20555 kPa | 744.6
20576 kPa | 744.6
20591 kPa | 744.6
20611 kPa | 744.6
20636 kPa | 744.6
20654 kPa | 744.6
20670 kPa | 744.7
20688 kPa | 744.8
20711 kPa | 744.7
20727 kPa | 744.6
20743 kPa | 744.7
20764 kPa | 744.6
20785 kPa | 744.7
20803 kPa | 744.7
20822 kPa | 744.7
20837 kPa | 744.9
20856 kPa | 744.7
20872 kPa | 744.8
20893 kPa | 744.8
20909 kPa | 744.8
20930 kPa | 744.9
20946 kPa | 744.9
20964 kPa | 744.9
20980 kPa | 744.9
20999 kPa | 745
21015 kPa | 744.9
21039 kPa | 744.9
21058 kPa | 744.9
21074 kPa | 744.8
21093 kPa | 744.9
21109 kPa | 745
21128 kPa | 744.9
21144 kPa | 745
21163 kPa | 745
21179 kPa | 744.9
21196 kPa | 745.1
21212 kPa | 745
21228 kPa | 744.9
21247 kPa | 744.9
21266 kPa | 745.1
21283 kPa | 745.1
21304 kPa | 745
21320 kPa | 745.2
21339 kPa | 745.1
21361 kPa | 745.1
21381 kPa | 745.2
21397 kPa | 745.2
21417 kPa | 745.2
21436 kPa | 745.1
21453 kPa | 745.1
21470 kPa | 745.2
21492 kPa | 745
21514 kPa | 745.1
21534 kPa | 745.2
21559 kPa | 745.2
21576 kPa | 745.2
21596 kPa | 745.3
21619 kPa | 745.3
21641 kPa | 745.2
21661 kPa | 745.2
21681 kPa | 745.2
21704 kPa | 745.4
21724 kPa | 745.3
21747 kPa | 745.4
21764 kPa | 745.4
21789 kPa | 745.5
21810 kPa | 745.3
21827 kPa | 745.3
21847 kPa | 745.5
21865 kPa | 745.5
21885 kPa | 745.4
21900 kPa | 745.3
21924 kPa | 745.5
21947 kPa | 745.5
21965 kPa | 745.4
21983 kPa | 745.4
22000 kPa | 745.4
22018 kPa | 745.5
22037 kPa | 745.5
22053 kPa | 745.5
